Active and inactive are the calls of the source.
Tests used:
Large T antigen = Large T antigen (Simian virus 40, UniProt P03070); type: functional, Betapolyomavirus macacae;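 also: Confirmatory-stage PubChem screen for compounds that inhibit SV40 T antigen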
[1] = molecular target: Induced myeloid leukemia cell differentiation protein Mcl-1 (Homo sapiens, UniProt Q07820); experiment: MCL1-BIM BH3 interaction inhibitors, dose response, biochemical, fluorescence polarization, BIM-BH3 peptide, 1536-well (AID 2217)
Sequence of Induced myeloid leukemia cell differentiation protein Mcl-1 (Q07820 whole entry): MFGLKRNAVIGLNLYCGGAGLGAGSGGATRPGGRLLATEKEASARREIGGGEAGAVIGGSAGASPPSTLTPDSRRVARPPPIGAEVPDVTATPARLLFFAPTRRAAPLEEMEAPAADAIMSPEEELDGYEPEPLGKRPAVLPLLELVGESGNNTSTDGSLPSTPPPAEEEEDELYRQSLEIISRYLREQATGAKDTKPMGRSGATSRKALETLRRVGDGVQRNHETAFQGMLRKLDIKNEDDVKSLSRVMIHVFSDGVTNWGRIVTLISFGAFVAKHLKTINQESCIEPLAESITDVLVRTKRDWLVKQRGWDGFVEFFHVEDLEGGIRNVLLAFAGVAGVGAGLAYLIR

Bcl-2-like protein 1 = Bcl-2-like protein 1 (Homo sapiens, UniProt Q07817); experiment: BCL-XL inhibitors, dose response, selectivity assay for MCL1 inhibitor project, biochemical, fluorescence polarization, 1536-well (AID 2218)
Sequence of Bcl-2-like protein 1 (Q07817 whole entry): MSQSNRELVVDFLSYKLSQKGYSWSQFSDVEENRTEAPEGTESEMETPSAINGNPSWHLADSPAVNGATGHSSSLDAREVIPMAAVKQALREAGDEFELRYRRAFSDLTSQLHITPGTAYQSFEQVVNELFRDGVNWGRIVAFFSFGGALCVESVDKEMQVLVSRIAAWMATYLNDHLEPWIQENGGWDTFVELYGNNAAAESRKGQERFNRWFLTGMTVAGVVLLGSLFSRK

Protein Tat = molecular target: T1, Protein Tat (Human immunodeficiency virus type 1 group M subtype B (isolate HXB2)(HIV-1), UniProt P04608); type: functional;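 also: tat binding to TAR RNA read out by fluorescence polarization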
T1 sequence (P04608 whole entry): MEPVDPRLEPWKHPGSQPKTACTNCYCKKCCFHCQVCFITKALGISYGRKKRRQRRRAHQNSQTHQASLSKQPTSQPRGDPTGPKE

[2] = inhibitors of firefly luciferase expression or activity, dose response, H4 neuroglioma cells, luminescence (AID 1990); type: functional, cell-based
[3] = tested on: Streptococcus sp. 'group A'; experiment: growth inhibition of control SK(-) GAS strain, dose response, counter-screen for streptokinase expression inhibitor project, luminescence, kanamycin, BacTiterGlo, confirmation (AID 1900); type: functional, organism-based
[4] = Luminescence Cell-Based Dose Response HTS to Identify Inhibitors of 5'UTR Stem-Loop Driven Prion Protein mRNA Translation in H4 Neuroglioblastoma Cells. [Related pubchem assays: 1827 (Project Summary), 1813 (Primary HTS)]; type: functional
[5] = inhibitors of SNCA 5'UTR-driven reporter translation, confirmation, H4 neuroglioma cells, luminescence (AID 1988); type: functional, cell-based
[6] = cytotoxicity in HPDE-C7 cells, cell-based, fluorescence, HTS (AID 430); type: functional; details: Homo sapiens
[7] = inhibitors of intracellular T. cruzi replication, confirmation, NIH3T3 host cells, beta-gal luminescence (AID 2044); type: functional, cell-based;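 also: intracellular parasites grown in NIH/3T3 mouse fibroblasts as host cells; luminescent beta-galactosidase reporter signal from transgenic T. cruzi replicating inside host cells; inhibitors lower the luminescence signal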
[8] = cytotoxicity in KRAS-transformed pancreatic duct cells, primary screen, cell-based, fluorescence, HTS (AID 431); type: functional; details: Homo sapiens;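 also: cell line used: HPDE-C7K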
[9] = growth suppression of PTEN-null colon cells, dose response, cell-based, HCT116 PTEN knockout (AID 1047); type: functional;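 also: HCT116 colon tumor cells with PTEN knocked out; cells exposed to compound for 60 hours before readout; potency for loss of cell viability measured by luminescence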
[10] = cytotoxicity toward NIH3T3 fibroblasts, dose response, counter-screen, cell-based, ATP luminescence, mouse fibroblasts (AID 2010); type: functional;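 also: cells exposed to compound for about 90 hours before reading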
[11] = growth suppression of beta-catenin-knockout colon cells, dose response, cell-based, HCT116, human colon tumor (AID 1045); type: functional;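 also: HCT116 colon tumor cells with beta catenin knocked out; cells exposed to compound for 60 hours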
Streptococcus = experiment: Group A Streptococcus viability loss, dose response, counter-screen for streptokinase expression inhibitor project, luminescence, BacTiterGlo (AID 1915); type: functional, organism-based;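 also: potency for reduction of bacterial viability or growth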
[12] = molecular target: T2, Mannose-6-phosphate isomerase (Homo sapiens, UniProt P34949); experiment: human PMI inhibitors, high substrate, primary screen, biochemical, fluorescence intensity, high mannose 6-phosphate (AID 1220)
T2 sequence (P34949 whole entry): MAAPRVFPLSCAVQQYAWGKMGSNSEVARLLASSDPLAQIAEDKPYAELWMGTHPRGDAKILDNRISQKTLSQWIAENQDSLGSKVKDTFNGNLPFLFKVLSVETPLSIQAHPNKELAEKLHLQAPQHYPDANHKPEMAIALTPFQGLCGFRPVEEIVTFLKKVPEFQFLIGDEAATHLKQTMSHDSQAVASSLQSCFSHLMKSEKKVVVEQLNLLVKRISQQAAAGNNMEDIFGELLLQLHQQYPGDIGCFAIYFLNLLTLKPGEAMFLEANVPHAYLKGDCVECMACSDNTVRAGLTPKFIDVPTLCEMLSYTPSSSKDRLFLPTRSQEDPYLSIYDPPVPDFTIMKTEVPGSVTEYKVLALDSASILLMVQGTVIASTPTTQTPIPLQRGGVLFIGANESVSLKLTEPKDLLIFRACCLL

[13] = molecular target: T3, Short transient receptor potential channel 4 (Mus musculus, UniProt Q9QUQ5); experiment: mouse TRPC4 channel inhibitors, dose response, cell-based, HEK293 TRPC4/mu-opioid, Fluo-4 calcium (AID 434942); type: functional;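 also: potency of inhibitors blocking the TRPC4 calcium response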
T3 sequence (Q9QUQ5 whole entry): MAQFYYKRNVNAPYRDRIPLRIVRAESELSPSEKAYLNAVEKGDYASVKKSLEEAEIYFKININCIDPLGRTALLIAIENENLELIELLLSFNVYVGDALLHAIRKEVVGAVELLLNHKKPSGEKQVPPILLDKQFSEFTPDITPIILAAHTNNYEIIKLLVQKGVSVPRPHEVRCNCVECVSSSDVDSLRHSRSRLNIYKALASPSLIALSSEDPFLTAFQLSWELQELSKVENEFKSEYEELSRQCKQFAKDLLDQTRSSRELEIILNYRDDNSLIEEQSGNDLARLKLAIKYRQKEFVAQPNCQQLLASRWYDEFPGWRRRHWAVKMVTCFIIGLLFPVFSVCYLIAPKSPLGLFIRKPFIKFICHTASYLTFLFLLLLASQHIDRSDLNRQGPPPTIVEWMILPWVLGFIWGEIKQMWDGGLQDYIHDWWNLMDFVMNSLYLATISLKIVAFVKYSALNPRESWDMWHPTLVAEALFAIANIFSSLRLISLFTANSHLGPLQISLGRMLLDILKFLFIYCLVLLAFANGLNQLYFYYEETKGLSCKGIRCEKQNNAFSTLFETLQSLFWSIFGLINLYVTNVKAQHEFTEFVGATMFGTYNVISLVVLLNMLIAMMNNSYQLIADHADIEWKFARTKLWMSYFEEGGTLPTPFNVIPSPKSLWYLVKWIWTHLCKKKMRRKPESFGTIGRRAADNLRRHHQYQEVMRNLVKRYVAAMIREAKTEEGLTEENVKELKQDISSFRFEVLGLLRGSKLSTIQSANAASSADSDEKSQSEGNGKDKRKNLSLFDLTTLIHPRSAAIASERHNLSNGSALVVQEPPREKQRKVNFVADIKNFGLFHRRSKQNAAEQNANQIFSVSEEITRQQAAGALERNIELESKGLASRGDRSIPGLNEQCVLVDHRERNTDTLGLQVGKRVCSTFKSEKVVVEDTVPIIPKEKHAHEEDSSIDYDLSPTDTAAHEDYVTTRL

Nonstructural protein 1 = Nonstructural protein 1 (Influenza A virus, UniProt Q194T2); type: functional, Influenza A virus (A/California/07/2009(H1N1))
Sequence of Nonstructural protein 1 (Q194T2 whole entry): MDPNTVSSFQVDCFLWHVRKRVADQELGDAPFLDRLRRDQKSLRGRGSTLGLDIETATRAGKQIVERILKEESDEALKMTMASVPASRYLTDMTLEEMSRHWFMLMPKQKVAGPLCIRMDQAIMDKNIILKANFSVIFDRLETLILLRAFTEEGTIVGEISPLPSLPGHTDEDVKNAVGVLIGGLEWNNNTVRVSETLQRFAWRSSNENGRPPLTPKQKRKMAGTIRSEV

Cytochrome P450 2C19 = Cytochrome P450 2C19 (Homo sapiens, UniProt P33261); experiment: Cytochrome panel assay with activity outcomes. Panel member name: p450-cyp2c19 Compounds with AC50 equal or less than 10 uM are considered active; type: functional; details: read-out: AC50
Sequence of Cytochrome P450 2C19 (P33261 whole entry): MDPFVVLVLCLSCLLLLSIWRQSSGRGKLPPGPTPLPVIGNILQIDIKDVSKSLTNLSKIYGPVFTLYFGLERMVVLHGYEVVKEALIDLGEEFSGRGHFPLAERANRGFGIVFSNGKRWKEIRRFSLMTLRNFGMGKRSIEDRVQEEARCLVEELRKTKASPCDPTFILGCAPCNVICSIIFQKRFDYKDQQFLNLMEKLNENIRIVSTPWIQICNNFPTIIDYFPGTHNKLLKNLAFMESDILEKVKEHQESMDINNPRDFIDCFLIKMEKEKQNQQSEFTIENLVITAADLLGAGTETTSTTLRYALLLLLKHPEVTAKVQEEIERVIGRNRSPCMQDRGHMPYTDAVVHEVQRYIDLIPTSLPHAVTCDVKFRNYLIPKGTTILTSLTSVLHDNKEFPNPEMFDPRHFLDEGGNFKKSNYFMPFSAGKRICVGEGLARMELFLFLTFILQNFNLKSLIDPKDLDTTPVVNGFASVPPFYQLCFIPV

[14] = molecular target: Heat shock protein HSP 90-alpha (Homo sapiens, UniProt P07900); type: functional, organism-based

Sequence of Large T antigen (P03070 whole entry): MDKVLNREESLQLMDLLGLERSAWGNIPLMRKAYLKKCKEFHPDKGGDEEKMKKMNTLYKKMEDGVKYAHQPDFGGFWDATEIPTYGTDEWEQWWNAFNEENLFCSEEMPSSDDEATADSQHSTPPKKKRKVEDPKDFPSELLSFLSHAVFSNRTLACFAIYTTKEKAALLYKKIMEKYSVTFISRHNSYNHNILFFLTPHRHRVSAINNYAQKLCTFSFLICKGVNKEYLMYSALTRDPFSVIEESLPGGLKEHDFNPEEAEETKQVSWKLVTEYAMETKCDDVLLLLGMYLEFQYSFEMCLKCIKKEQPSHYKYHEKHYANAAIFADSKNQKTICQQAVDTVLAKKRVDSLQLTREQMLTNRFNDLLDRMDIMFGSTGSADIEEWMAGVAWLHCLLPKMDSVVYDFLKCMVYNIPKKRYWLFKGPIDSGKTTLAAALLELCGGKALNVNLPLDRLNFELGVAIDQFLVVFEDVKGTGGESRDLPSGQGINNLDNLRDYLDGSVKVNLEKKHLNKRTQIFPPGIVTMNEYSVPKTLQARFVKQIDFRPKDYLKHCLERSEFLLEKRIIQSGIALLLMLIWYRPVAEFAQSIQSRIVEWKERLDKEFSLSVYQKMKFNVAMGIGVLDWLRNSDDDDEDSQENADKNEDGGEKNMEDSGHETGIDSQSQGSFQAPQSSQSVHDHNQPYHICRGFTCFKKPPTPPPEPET

In the case of `O=C1NC(=O)N(c2cccc(Cl)c2)C(=O)/C1=C\c1ccc(Sc2nc3ccccc3[nH]2)o1`, the IC50 (Large T antigen) is reported as 66.2 µM (active), the IC50 [1] is reported as 8.64 µM (active) and the IC50 (Bcl-2-like protein 1) is reported as > 12.1 µM (not active). For the same compound, the IC50 (Protein Tat) was > 100 µM (active).
In the case of `Oc1c(CN2CCCCC2)cc(Br)c2cccnc12`, the EC50 [2] is reported as 5.98 µM (active), the EC50 [3] is reported as 3.42 µM (active) and the EC50 [4] is reported as 1.63 µM (active). The EC50 [5] was 4.28 µM (active), the EC50 [6] was 7.75 µM (active) and the EC50 [7] was 1.16 µM (active). For the same compound, the EC50 [8] was 10.4 µM (active), the EC50 [9] was 1.95 µM (active) and the EC50 [10] was 6.38 µM (active). The EC50 [11] was 1.64 µM (active), the EC50 (Streptococcus) was 10.7 µM (active) and the IC50 [12] was 15 µM (active). The EC50 [13] was 4.22 µM (active), the IC50 (Nonstructural protein 1) was 3.55 µM (active) and the AC50 (Cytochrome P450 2C19) was 39.8 µM (inconclusive). For the same compound, the AC50 [14] was 6.04 µM (active).

From ChEMBL document CHEMBL1201862, “PubChem BioAssay data set” (2004)
